Measured values as given in patent US12642769B2, “Delivery carrier into cell” (Kabusikikaisya ITO, priority 2019, dated 2026).
Where two headings read alike, the source gives them in different places.

Tests used:
[1] = format: physicochemical; conditions: for Remaining rate: buffer; for Evaluation results: 0.02 mol/L in purified water, 50° C., one month
Experimental: APS, APPS, and EPC so that the concentration of each ascorbate derivative is 0.02 mol/L. Dissolve them in purified water and store them at 50° C. for one month to determine their potency in a high performance liquid The starting titers of each substance were measured by chromatography, and the results after one month were used as the starting titer of 100%. If more than 95% of the result was remaining in the material, it is ∘, and if less than 95% or more than 80% of the result was less than 95%, it is […]. […] Sodium ascorbic acid-2-phosphate: APS; Sodium ascorbic acid-2-phosphate-6-palmitate 3: APPS; Potassium tocopheryl ascorbic acid-2-phosphate: EPC; ascorbic acid: AA.

[2] = format: physicochemical; conditions: for Remaining rate: buffer; for Evaluation results: 0.5% by weight in purified water, defoaming time
Experimental: The ascorbic acid derivatives of APS, APPS, EPC, and AA were dissolved in purified water at a concentration of 0.5% by weight, and the time to defoam the bubbles was measured with a sponge under the same conditions. The results are shown in Table 14, where the defoaming time of the APPS with the longest defoaming time was set to 100% and the defoaming time of each was calculated as a percentage, with 90% or more being considered O (best), 80% or more to 90% or less being considered B (good), and 80% or less being considered X (poor). Description of abbreviations: ascorbic acid-2-phosphateNa:APS, ascorbic acid-2-phosphate-6-palmitate3Na:APPS, ascorbic acid-2-tocopheryl potassium:EPC, ascorbic acid:AA.

[3] = system: normal human epidermal fibroblasts; test: cell uptake of Rhodamine B from temperature-responsive liposome carriers with different vitamin derivatives; format: cell-based; conditions: EPC-added groups set to 100%, liposome carrier with DOPEMP (NIPAA/DMAPAA 5%) Cop, rhodamine 1 μM, 35° C. 1 hour, 40° C. 20 min
Experimental: The total amount of the next lipid was 20 mg, the molar ratio of (lipid 1,2-diore oil-3-trimethylammonium propane):(total weight of lamella-forming surfactant diore oil phosphatidylethanolamine and DOPEMP (NIPAA/DMAPAA 5%) Cop) was 3:7. Each was dissolved in chloroform. Further, the fluorescent dye Rhodamine B (1 mg) was added and dissolved. The lower limit critical dissolution temperature of DOPEMP (NIPAA/DMAPAA 5%) Cop used in this experiment in water was 40° C. The molar ratio of (dioleoylphosphatidylethanolamine: DOPEMP (NIPAA/DMAPAA) Cop.) added by total weight was 6.5:0.5.
The solution was transferred to an eggplant flask and the solvent was blown off by an evaporator to prepare a lipid film. EPC, APPS, APS and AA (ascorbic acid), which are […] of Vitamin derivatives having different ATG activity and CTS activity (hereinafter abbreviated as ATG-CTS activity), were prepared. To this lipid film, EPC, APPS, APS and AA (5 mg each) dissolved in PBS (1 ml) were added. The lipid film was hydrated and then dispersed by vortexing. After that, sonication was performed for 30 minutes in an ultrasonic bath to reduce the size of the liposome, and then the liposome was passed through a 200 nm filter using an extruder to adjust the size of the liposome. The average particle size of the examples and comparative examples was 111 nm±10 nm. Then, the liposomes were separated and purified by gel filtration. By the above method, a Delivery carrier into cell of the present invention containing an ATG-CTS activator, a temperature-responsive polymer and a hydrocarbon was prepared.
Next, normal human epidermal fibroblasts were cultured in DMEM (low glucose) containing 5% FBS for 24 hours at 37° C. at a density of 5×10^5 cell/well in 6-well plates, and then the medium containing four delivery carrier into the cell (added to achieve a final rhodamine concentration of 1 μM), including the embodiments and comparative examples prepared as described above, was exchanged for each medium and cultured at 35° C. for 1 hour. After that, it was incubated at 40° C. for 20 min, and then at 35° C. for 1 h. It was then washed five times with PBS and immobilized with 4% paraformaldehyde phosphate buffer solution for 20 min, washed twice with PBS again, and the relative concentration of the fluorescent material taken up into the cell was determined by measuring the fluorescence intensity with a fluorescent microplate reader. cell of delivery carrier into the cell without vitamin derivatives were also cultured in the same way as additive-free controls and the fluorescence intensity was measured.

[4] = system: normal human epidermal fibroblasts; test: cell uptake of rhodamine B from carriers without stimulus-responsive polymers; format: cell-based; conditions: EPC set at 100%; carrier without stimulus-responsive polymers; vitamin derivative 200 μM; 37° C. 1 hour
Experimental: Create a Delivery carrier into cell in a comparison experiment To investigate the effects of vitamin derivatives with different ATG-CTS activities on cell uptake, the following experiments were performed on delivery carrier into the cell without stimulus-responsive polymers. Six g of glycerin, 1 g of sodium cocoyl glutamate, and 1 g each of three vitamin derivatives (PA, APPS, and EPC) with different ATG-CTS activities were mixed with an electric hand mixer, and 0.1 g of rhodamine B, a fluorescent dye, was added to 20 g of jojoba oil and stirred for 20 minutes. To this, PBS was added to 100 g and stirred for 10 minutes with an electric hand mixer to prevent foaming. 3 types of cell carriers were obtained by completely dispersing them. A Delivery carrier into cell of vitamin derivative-free was also created using the same method as an additive-free control.
Normal human epidermal fibroblasts were incubated in DMEM (low glucose) containing 5% FBS at a density of 5×10^5 cell/well at 37° C. for 24 hours in 6-well plates, and then the medium containing the three delivery carrier into the cell of the invention (final concentration of PA, APPS, and EPC was added to 200 μM each) was replaced with the medium prepared as described above and incubated at 37° C. for 1 hour. Then, the cell were washed five times with PBS and immobilized with 4% paraformaldehyde phosphate buffer solution for 20 min, washed twice with PBS again, and the relative concentration of the fluorescent material taken up into the cell was determined by measuring the fluorescence intensity at the excitation wavelength of 555 (nm) and the fluorescence wavelength of 580 (nm) with a fluorescent microplate reader. cell of delivery carrier into the cell without vitamin derivatives were also cultured in the same way as additive-free controls and the fluorescence intensity was measured.

[5] = concentration in the formulation increased to 1%
[6] = system: HMV-II cell; test: Melanin production inhibition test; format: cell-based; conditions: 200 μM, no carrier
Experimental: Pre-treatment: The following melanin production inhibition tests were performed using A-2, B-2, C-2, and D-2 pH-responsive delivery carrier into the cell (A-3, B-3, C-3, and D-3): HMV-II cell were seeded in 24 well dishes at a concentration of 1×10^5 cell/mL, incubated for 24 hours, and then added 200 μM of IBMX and A-3, B-3, C-3, and D-3 pH-responsive delivery carrier into the cell (A-3, B-3, C-3, and D-3) at an APS concentration of 100 μM. 2 hours later, the cell were washed with PBS, 200 μM of IBMX was added again, and incubated for 70 hours. The cell were then solubilized with 200 μL of NaOH at 1 mol/L, and melanin was extracted and quantified by measuring the absorbance at 405 nm. The melanin production was increased about 3-fold by the addition of IBMX (no carrier for pH-responsive cell delivery). When the amount of melanin produced at this time was assumed to be 100%, the amount of melanin produced by A-3 addition of the invention was 48%, B-3 was 78%, C-3 was 85%, and D-3 was 90%.

[7] = system: HMV-II cell; test: Cellular damage assessment (Cell Counting Kit-8); format: cell-based; conditions: Cell Counting Kit-8, absorbance at 450 nm
Experimental: HMV-II cell were seeded at a concentration of 1×10^5 cell/mL in 500 μL/well on a 6-well plate. After incubation for 24 hours, 200 μM of IBM X, a melanin-producing stimulant, was added. APS was added to 100 μM for each pH-responsive delivery carrier into cell of A-3, B-3, C-3, and D-3. 2 hours later, the cell were washed with PBS, 200 μM of IVMX was added again, and incubated for 70 hours. To this, 10 μL of Cell Counting Kit-8 was added, and the cytotoxicity of sample addition was compared by measuring absorbance at 450 nm after 1 h of incubation.

[8] = lower critical dissolution temperature in water; format: physicochemical
Experimental: The lower critical dissolution temperature of the temperature-stimuli-responsive polymer-containing molecules in the present invention in water should be between a temperature close to body temperature and 70° C., which is the maximum temperature for carrier transportation in summer during product distribution (e.g., 35.0 to 70.0° C.). On the other hand, for the temperature-responsive polymer of the present invention, even if the lower critical dissolution temperature is near body temperature, it is easier to suppress cell death after delivery into cells if the temperature is as high as possible. […] In the present invention, the lower critical dissolution temperature of the temperature-responsive polymer in water is measured by differential scanning calorimetry (DSC).
For this reason, the lower critical dissolution temperature of the conventional temperature-stimulus-responsive-polymer containing molecules is preferred to be 37-42° C., which is close to the body temperature. […] In the present invention, the lower critical dissolution temperature of the temperature-stimulus-responsive polymer in water is measured by differential scanning calorimetry (DSC).

## O=C1O[C@H]([C@@H](O)CO)C(O)=C1O [AA, ascorbic acid, reference compound]
[1]; 1 month, 0.02 mol/L
  Remaining rate: 56%
[2]
  Remaining rate: 1%
[3]
  fluorescence intensity (fluorescent material taken up into the cell): 52%

## CCCCCCCCCCCCCCCC(=O)OC[C@H](O)C1OC(=O)C(OP(=O)([O-])[O-])=C1[O-].[Na+].[Na+].[Na+] (stereo partly drawn) [APPS, Sodium ascorbic acid-2-phosphate-6-palmitate 3]
[1]
  Remaining rate: 78%
[2]
  Evaluation results: ○
  Remaining rate: 100%
[3]
  fluorescence intensity (fluorescent material taken up into the cell): 78%
[4]
  fluorescence intensity (fluorescent material taken up into the cell): 76%

## O=C1O[C@H]([C@@H](O)CO)C(O)=C1OP(=O)([O-])[O-].[Na+].[Na+] [APS, Sodium ascorbic acid-2-phosphate]
[1]
  Evaluation results: Δ
[1]; 1 month, 0.02 mol/L
  Remaining rate: 91%
[2]
  Remaining rate: 3%
[3]
  fluorescence intensity (fluorescent material taken up into the cell): 49%

## Cc1c(C)c2c(c(C)c1OP(=O)([O-])OC1=C(O)[C@@H]([C@@H](O)CO)OC1=O)CC[C@@](C)(CCC[C@H](C)CCC[C@H](C)CCCC(C)C)O2.[K+] [EPC, Potassium tocopheryl ascorbic acid-2-phosphate]
[1]
  Evaluation results: ○
  Remaining rate: 96%
[2]
  Evaluation results: Δ
  Remaining rate: 85%
[3]
  fluorescence intensity (fluorescent material taken up into the cell): 100%
[4]
  fluorescence intensity (fluorescent material taken up into the cell): 100%

## CCCCCCCC(=O)OC1=C(OCC(O)CO)C(=O)OC1C(O)CO (stereo not drawn) [GOVC, 2-glyceryl-3-Caprylyl ascorbate]
[5]
  skin irritation: no skin irritation was observed

## CC(C)Cn1c(=O)n(C)c(=O)c2[nH]cnc21 [IBMX]
[6]
  increase of melanin production: about 3 fold
[7]
  cytotoxicity: cytotoxicity was confirmed

## CCCCCCCC(=O)OC1=C(OCC(O)CO)C(C(O)CO)OC1=O (stereo not drawn) [OGVC, 3-glyceryl-2-Caprylyl ascorbate]
[5]
  skin irritation: no skin irritation was observed

## CCCCCCCCCCCCCCCC(=O)OC[C@H](O)[C@H]1OC(=O)C(O)=C1O [PA, ascorbyl palmitate]
[4]
  fluorescence intensity (fluorescent material taken up into the cell): 58%

## Dioleoylephosphatidylethanolamine mercaptopropionyl (isopropylacrylamide/dimethylaminopropylacrylamide 5%) copolymer [DOPEMP (NIPAA/DMAPAA 5%) Cop]
[8]
  lower critical dissolution temperature in water: 40 °C
